According to ChEMBL document CHEMBL5584328, “Integrating computational and experimental chemical biology revealed variable anticancer activities of phosphodiesterase isoenzyme 5 inhibitors (PDE5i) in lung cancer” (RSC Med Chem, 2024):
Activity calls are given as the source filed them. No cut-off for these calls is given here.

Tests used:
NCI-H1299 [1] = assay: Antiproliferative activity against human NCI-H1299 cells measured after 24 hrs by MTT assay; format: functional, cell-based
NCI-H661 [2] = assay: Potentiation of cisplatin-induced cytotoxicity against human NCI-H661 cells assessed as combination index at 1:4 ratio of cisplatin to compound measured after 48 hrs by MTT assay; format: functional
A549 [3] = assay: Antiproliferative activity against human A549 cells measured after 48 hrs by MTT assay; format: functional, cell-based
NCI-H661 [4] = assay: Potentiation of cisplatin-induced cytotoxicity against human NCI-H661 cells assessed as fold reduction in cisplatin IC50 at 1:4 ratio of cisplatin to compound measured after 48 hrs by MTT assay relative to cisplatin alone; format: functional
NCI-H1299 [5] = assay: Antimigratory activity against human NCI-H1299 cells assessed as reduction in wound closure measured after 24 hrs by wound healing assay; format: functional, cell-based
A549 [6] = assay: Potentiation of cisplatin-induced cytotoxicity against human A549 cells assessed as combination index at 1:5 ratio of cisplatin to compound measured after 48 hrs by MTT assay; format: functional
A549 [7] = assay: Reduction in PDE5 gene expression in human A549 cells at 0.1 IC50 measured after 48 hrs by qRT-PCR analysis; format: functional, cell-based
A549 [8] = assay: Induction of apoptosis in human A549 cells assessed as increase in apoptotic cells at 256 uM measured after 48 hrs by Annexin V-FITC/PI staining based flow cytometry relative to control; format: functional
NCI-H1299 [9] = assay: Antiproliferative activity against human NCI-H1299 cells by MTT assay; format: functional, cell-based; conditions: time 24-72 hrs, TDE = time-dependent effect
NCI-H661 [10] = assay: Potentiation of raloxifene-induced cytotoxicity against human NCI-H661 cells assessed as combination index at 1:2 ratio of raloxifene to compound measured after 48 hrs by MTT assay; format: functional
NCI-H661 [11] = assay: Antiproliferative activity against human NCI-H661 cells measured after 48 hrs by MTT assay; format: functional, cell-based
A549 [12] = assay: Cell cycle arrest in human A549 cells assessed as increase in cell population at G2 phase at 64 uM measured after 48 hrs by propidium iodide staining based flow cytometry; format: functional
A549 [13] = assay: Potentiation of raloxifene-induced cytotoxicity against human A549 cells assessed as fold reduction in raloxifene IC50 at 1:3 ratio of raloxifene to compound measured after 48 hrs by MTT assay relative to raloxifene alone; format: functional
A549 [14] = assay: Reduction in PDE5 protein expression in human A549 cells at 0.25 to 0.5 IC50 measured after 48 hrs by Western blot analysis; format: functional, cell-based
NCI-H661 [15] = assay: Antiproliferative activity against human NCI-H661 cells measured after 24 hrs by MTT assay; format: functional, cell-based
NCI-H1299 [16] = assay: Potentiation of raloxifene-induced cytotoxicity against human NCI-H1299 cells assessed as fold reduction in raloxifene IC50 at 1:2 ratio of raloxifene to compound measured after 48 hrs by MTT assay relative to raloxifene alone; format: functional
NCI-H1299 [17] = assay: Potentiation of raloxifene-induced cytotoxicity against human NCI-H1299 cells assessed as combination index at 1:2 ratio of raloxifene to compound measured after 48 hrs by MTT assay; format: functional
NCI-H661 [18] = assay: Antiproliferative activity against human NCI-H661 cells measured after 72 hrs by MTT assay; format: functional, cell-based
A549 [19] = assay: Reduction in Bcl-2 gene expression in human A549 cells at 0.1 IC50 measured after 48 hrs by qRT-PCR analysis; format: functional, cell-based
NCI-H661 [20] = assay: Potentiation of raloxifene-induced cytotoxicity against human NCI-H661 cells assessed as fold reduction in raloxifene IC50 at 1:2 ratio of raloxifene to compound measured after 48 hrs by MTT assay relative to raloxifene alone; format: functional
NCI-H1299 [21] = assay: Potentiation of cisplatin-induced cytotoxicity against human NCI-H1299 cells assessed as fold reduction in cisplatin IC50 at 1:4 ratio of cisplatin to compound measured after 48 hrs by MTT assay relative to cisplatin alone; format: functional
A549 [22] = assay: Potentiation of cisplatin-induced cytotoxicity against human A549 cells assessed as fold reduction in cisplatin IC50 at 1:5 ratio of cisplatin to compound measured after 48 hrs by MTT assay relative to cisplatin alone; format: functional
A549 [23] = assay: Antiproliferative activity against human A549 cells by MTT assay; format: functional, cell-based; conditions: time 24-72 hrs, TDE = time-dependent effect
NCI-H1299 [24] = assay: Antiproliferative activity against human NCI-H1299 cells measured after 72 hrs by MTT assay; format: functional, cell-based
A549 [25] = assay: Potentiation of raloxifene-induced cytotoxicity against human A549 cells assessed as combination index at 1:3 ratio of raloxifene to compound measured after 48 hrs by MTT assay; format: functional
A549 [26] = assay: Inhibition of colony formation in human A549 cells assessed as reduction in number of colonies at 64 to 128 uM measured after 48 hrs by colony formation assay; format: functional, cell-based; conditions: dose 64-128 µM
A549 [27] = assay: Antiproliferative activity against human A549 cells measured after 72 hrs by MTT assay; format: functional, cell-based
A549 [28] = assay: Inhibition of colony formation in human A549 cells assessed as reduction in size of colonies at 64 to 128 uM measured after 48 hrs by colony formation assay; format: functional, cell-based; conditions: dose 64-128 µM
NCI-H1299 [29] = assay: Antiproliferative activity against human NCI-H1299 cells measured after 48 hrs by MTT assay; format: functional, cell-based
NCI-H1299 [30] = assay: Potentiation of cisplatin-induced cytotoxicity against human NCI-H1299 cells assessed as combination index at 1:4 ratio of cisplatin to compound measured after 48 hrs by MTT assay; format: functional
NCI-H661 [31] = assay: Antiproliferative activity against human NCI-H661 cells by MTT assay; format: functional, cell-based; conditions: time 24-72 hrs, TDE = time-dependent effect
A549 [32] = assay: Antiproliferative activity against human A549 cells measured after 24 hrs by MTT assay; format: functional, cell-based

- IC50 (NCI-H1299 [1]; NCI-H1299, 24 h): 76.1 µM
- IC50 (A549 [3]; A549, 48 h): 128 µM
- IC50 (NCI-H661 [11]; NCI-H661, 48 h): 80.4 µM
- IC50 (NCI-H661 [15]; NCI-H661, 24 h): 177 µM
- IC50 (NCI-H661 [18]; NCI-H661, 72 h): 98.8 µM
- IC50 (NCI-H1299 [24]; NCI-H1299, 72 h): 70.5 µM
- IC50 (A549 [27]; A549, 72 h): 82.8 µM
- IC50 (NCI-H1299 [29]; NCI-H1299, 48 h): 86.3 µM
- IC50 (A549 [32]; A549, 24 h): 150 µM
SMILES: CCCOc1ccc(S(=O)(=O)NCCC2CCCN2C)cc1-c1nc2c(CCC)nn(C)c2c(=O)[nH]1 (stereo unspecified) [UDENAFIL]
- Activity (NCI-H1299 [1]): Dose-Dependent Effect
- CI (NCI-H661 [2]): 0.83
- Activity (A549 [3]): Dose-Dependent Effect
- fold change (FC) (NCI-H661 [4]): 2.1
- Activity (NCI-H1299 [5]): Dose-Dependent Effect
- CI (A549 [6]): 0.95
- Activity (A549 [7]): Active
- Activity (A549 [8]): 55.9%
- Activity (NCI-H1299 [9]): Tde
- CI (NCI-H661 [10]): 0.8
- Activity (NCI-H661 [11]): Dose-Dependent Effect
- Activity (A549 [12]): Active
- fold change (FC) (A549 [13]): 1.6
- Activity (A549 [14]): Dose-Dependent Effect
- Activity (NCI-H661 [15]): Dose-Dependent Effect
- fold change (FC) (NCI-H1299 [16]): 2.4
- CI (NCI-H1299 [17]): 0.88
- Activity (NCI-H661 [18]): Dose-Dependent Effect
- Activity (A549 [19]): Active
- fold change (FC) (NCI-H661 [20]): 2.3
- fold change (FC) (NCI-H1299 [21]): 2.4
- fold change (FC) (A549 [22]): 1.7
- Activity (A549 [23]): Tde
- Activity (NCI-H1299 [24]): Dose-Dependent Effect
- CI (A549 [25]): 0.98
- inhibition (A549 [26]): Active
- Activity (A549 [27]): Dose-Dependent Effect
- inhibition (A549 [28]): Active
- Activity (NCI-H1299 [29]): Dose-Dependent Effect
- CI (NCI-H1299 [30]): 0.82
- Activity (NCI-H661 [31]): Tde
- Activity (A549 [32]): Dose-Dependent Effect
